Results from patent US10017527B2, “KLK4 inhibitors” (Universiteit Antwerpen, priority 2014, dated 2018).

What was measured:
Type in all cases: biochemical
Matriptase = molecular target: T1, Matriptase (Homo sapiens, UniProt Q9Y5Y6); assay: Matriptase inhibition; settings: Matriptase; read-out: IC50 MAT
T1 sequence (Q9Y5Y6 1-855): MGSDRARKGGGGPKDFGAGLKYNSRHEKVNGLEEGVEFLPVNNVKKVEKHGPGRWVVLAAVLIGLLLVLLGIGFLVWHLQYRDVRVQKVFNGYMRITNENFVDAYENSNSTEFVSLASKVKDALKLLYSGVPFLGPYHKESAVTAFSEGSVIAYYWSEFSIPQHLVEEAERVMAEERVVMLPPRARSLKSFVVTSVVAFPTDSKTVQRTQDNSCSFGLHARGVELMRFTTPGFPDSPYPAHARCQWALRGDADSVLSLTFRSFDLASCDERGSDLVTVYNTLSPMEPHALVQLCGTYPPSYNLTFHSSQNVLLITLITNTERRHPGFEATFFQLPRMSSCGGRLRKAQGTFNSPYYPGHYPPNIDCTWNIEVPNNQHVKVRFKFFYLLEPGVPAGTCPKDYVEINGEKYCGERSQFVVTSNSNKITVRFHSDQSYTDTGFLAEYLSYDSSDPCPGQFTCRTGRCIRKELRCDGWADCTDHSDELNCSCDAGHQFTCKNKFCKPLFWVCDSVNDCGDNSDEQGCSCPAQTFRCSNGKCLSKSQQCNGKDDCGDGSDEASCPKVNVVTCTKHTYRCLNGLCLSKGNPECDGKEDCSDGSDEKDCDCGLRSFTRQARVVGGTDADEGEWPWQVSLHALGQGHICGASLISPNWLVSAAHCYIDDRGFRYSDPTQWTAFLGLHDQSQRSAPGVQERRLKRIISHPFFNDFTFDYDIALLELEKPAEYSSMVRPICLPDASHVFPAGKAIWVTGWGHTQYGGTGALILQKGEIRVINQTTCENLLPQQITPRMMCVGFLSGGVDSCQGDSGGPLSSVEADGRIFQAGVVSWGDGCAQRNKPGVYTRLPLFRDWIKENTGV

KLK1 (human) = molecular target: T2, KLK1 (human) (Homo sapiens, UniProt P06870); assay: KLK1 inhibition, fluorogenic substrate H-Pro-Phe-Arg-AMC; settings: Tris buffer pH 7.8; read-out: IC50 KLK1
T2 construct: purchased Prospec
T2 sequence (P06870 25-262): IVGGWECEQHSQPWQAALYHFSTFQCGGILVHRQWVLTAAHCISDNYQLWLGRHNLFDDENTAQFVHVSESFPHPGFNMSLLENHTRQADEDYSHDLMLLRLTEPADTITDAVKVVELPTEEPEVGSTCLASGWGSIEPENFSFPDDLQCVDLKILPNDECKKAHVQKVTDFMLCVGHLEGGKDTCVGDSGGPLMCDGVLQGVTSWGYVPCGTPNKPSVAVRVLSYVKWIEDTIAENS
Procedure, shortened: (§1)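 Inhibitor potency is reported as IC50. KLK1 and KLK2 shared one protocol, while the tPA and human neutrophil elastase assays used chromogenic substrates measured at 405 nm.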

KLK8 (human) = molecular target: T3, KLK8 (human) (Homo sapiens, UniProt O60259); assay: KLK8 inhibition, fluorogenic substrate Boc-Val-Pro-Arg-AMC; settings: Tris buffer pH 8; read-out: IC50 KLK8
T3 construct: purchased Viktor Magdolen, TUMunich (TUM), supplied by an academic laboratory
T3 sequence (O60259 33-260): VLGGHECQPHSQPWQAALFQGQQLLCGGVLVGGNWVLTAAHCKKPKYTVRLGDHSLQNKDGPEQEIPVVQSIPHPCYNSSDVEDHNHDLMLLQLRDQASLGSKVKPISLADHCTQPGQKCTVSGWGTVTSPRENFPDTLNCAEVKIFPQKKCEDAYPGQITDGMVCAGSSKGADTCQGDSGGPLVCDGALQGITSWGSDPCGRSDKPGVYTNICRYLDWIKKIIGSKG
Excerpt: (§2) The IC50 values For KLK1, KLK2 and KLK8 were obtained in a similar way. For plasmin, tPA, thrombin, Fxa, HNE, Plasma kallikrein Chromogenic substrates were used (absorption: 405 nm). (KLK2, KLK4, KLK8 were supplied by Viktor Magdolen TUMunich (TUM)).

Plasmine (human plasma) = molecular target: T4, Plasmine (human plasma) (Homo sapiens, UniProt P00747); assay: Plasmin inhibition, chromogenic substrate Biophen CS-21(66); settings: Plasmin; Tris buffer pH 7.4; read-out: IC50 PLM
T4 construct: purchased Sigma-Aldrich; host or cells: human plasma
T4 sequence (P00747 581-810 limits assumed): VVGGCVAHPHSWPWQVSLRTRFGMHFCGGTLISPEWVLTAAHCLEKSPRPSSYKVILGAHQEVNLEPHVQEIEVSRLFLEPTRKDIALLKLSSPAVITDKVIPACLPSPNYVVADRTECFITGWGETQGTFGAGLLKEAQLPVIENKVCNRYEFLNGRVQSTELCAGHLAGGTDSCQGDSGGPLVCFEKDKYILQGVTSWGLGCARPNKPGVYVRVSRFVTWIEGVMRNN
T4 sequence (P00747 98-580 partner limits assumed): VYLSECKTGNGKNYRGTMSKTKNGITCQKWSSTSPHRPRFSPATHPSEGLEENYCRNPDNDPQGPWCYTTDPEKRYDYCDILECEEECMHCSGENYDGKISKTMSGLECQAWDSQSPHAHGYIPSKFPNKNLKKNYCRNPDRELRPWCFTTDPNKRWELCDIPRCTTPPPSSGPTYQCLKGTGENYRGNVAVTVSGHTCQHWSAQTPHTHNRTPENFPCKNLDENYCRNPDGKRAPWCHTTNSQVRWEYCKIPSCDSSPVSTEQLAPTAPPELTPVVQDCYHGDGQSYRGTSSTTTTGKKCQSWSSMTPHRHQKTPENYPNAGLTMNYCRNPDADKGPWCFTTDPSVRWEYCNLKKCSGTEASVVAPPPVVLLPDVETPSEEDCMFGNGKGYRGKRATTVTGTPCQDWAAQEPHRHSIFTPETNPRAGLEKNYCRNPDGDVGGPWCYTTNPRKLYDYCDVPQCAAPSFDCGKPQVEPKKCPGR
Excerpt: as §2

uPA (recombinant) = molecular target: T5, uPA (recombinant) (Homo sapiens, UniProt P00749); assay: uPA inhibition, chromogenic substrate Biophen CS-61(44); settings: Tris buffer pH 8.8; read-out: IC50 uPA
T5 construct: purchased Nodia

tPA (recombinant) = molecular target: T6, tPA (recombinant) (Homo sapiens, UniProt P00750); assay: tPA inhibition, chromogenic substrate Biophen CS-05(88); settings: Tris buffer pH 8.3; read-out: IC50 tPA
T6 construct: purchased Nodia
T6 sequence (P00750 36-562, species assumed): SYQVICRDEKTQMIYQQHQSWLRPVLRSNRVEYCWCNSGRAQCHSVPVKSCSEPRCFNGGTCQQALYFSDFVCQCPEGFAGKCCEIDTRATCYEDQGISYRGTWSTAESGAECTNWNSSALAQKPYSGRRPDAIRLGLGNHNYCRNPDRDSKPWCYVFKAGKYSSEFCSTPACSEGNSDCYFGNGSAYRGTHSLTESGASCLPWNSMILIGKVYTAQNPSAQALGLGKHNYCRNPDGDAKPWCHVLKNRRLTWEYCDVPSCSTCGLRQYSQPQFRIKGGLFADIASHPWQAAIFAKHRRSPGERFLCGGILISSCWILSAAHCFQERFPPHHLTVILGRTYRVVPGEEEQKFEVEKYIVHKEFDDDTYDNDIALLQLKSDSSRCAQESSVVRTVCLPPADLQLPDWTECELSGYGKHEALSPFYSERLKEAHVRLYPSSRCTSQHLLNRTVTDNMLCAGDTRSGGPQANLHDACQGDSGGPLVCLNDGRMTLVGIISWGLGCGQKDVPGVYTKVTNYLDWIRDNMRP
Procedure, shortened: as §1

Thrombine (human plasma) = molecular target: T7, Thrombine (human plasma) (Homo sapiens, UniProt P00734); assay: Thrombin inhibition, chromogenic substrate Biophen CS-21(66); settings: Thrombin; Tris buffer pH 8.3; read-out: IC50 THR
T7 construct: purchased Sigma-Aldrich; host or cells: human plasma

FXa = molecular target: T8, FXa (Homo sapiens, UniProt P00742); assay: FXa inhibition, chromogenic substrate Biophen CS-11(32); settings: Tris buffer pH 8.3; read-out: IC50 FXa
T8 construct: purchased Nodia
T8 sequence (P00742 235-488 limits assumed): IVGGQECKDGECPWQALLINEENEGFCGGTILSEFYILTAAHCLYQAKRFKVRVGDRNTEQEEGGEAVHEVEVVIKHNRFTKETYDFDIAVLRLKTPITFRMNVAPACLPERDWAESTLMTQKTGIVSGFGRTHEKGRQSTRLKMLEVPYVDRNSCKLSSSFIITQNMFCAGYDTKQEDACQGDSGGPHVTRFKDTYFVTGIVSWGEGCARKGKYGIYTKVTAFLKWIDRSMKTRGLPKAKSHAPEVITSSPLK
T8 sequence (P00742 41-179 partner limits assumed): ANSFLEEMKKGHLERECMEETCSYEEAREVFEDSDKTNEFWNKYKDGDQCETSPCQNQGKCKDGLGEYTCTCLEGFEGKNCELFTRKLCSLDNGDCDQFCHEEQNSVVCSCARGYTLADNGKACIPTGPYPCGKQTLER
Excerpt: as §2

KLK4 = molecular target: T9, KLK4 (Homo sapiens, UniProt Q9Y5K2); assay: KLK4 inactivation kinetics from progress curves (kobs vs inhibitor concentration); settings: for kapp KLK4: apparent second-order rate constant, substrate 250 μM; for Irreversible (KLK4): irreversible binding to KLK4, Yes/No
T9 construct: purchased Viktor Magdolen (TUM), supplied by an academic laboratory
T9 sequence (Q9Y5K2 31-254): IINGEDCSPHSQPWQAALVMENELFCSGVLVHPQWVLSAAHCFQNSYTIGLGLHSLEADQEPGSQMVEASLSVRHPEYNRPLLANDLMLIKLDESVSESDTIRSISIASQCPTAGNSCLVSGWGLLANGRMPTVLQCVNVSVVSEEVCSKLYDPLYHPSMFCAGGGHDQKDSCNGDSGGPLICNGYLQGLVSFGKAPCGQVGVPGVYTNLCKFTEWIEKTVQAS
Procedure, shortened: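 Enzyme was added at time zero to inhibitor plus substrate (250 μM final), and aminomethylcoumarine absorbance was followed under pseudo-first-order conditions ([I]0>>[E]0) with under 10% substrate conversion. Progress curves were fitted to the integrated rate equation to give kobs. kapp is the slope of kobs versus [I]0 and depends on substrate concentration.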

COCCOCCOC(=O)NC(c1ccc(NC(=N)N)cc1)P(=O)(Oc1ccccc1)Oc1ccccc1.O=C(O)C(F)(F)F (centres unmarked) [Compound 28, 2-(2-methoxyethoxy)ethyl((diphenoxyphosphoryl)(4-guanidinophenyl)methyl) carbamate 2,2,2-trifluoroacetate]
IC50 (Matriptase): 2.5 to 10 µM | IC50 (KLK1 (human)): 10 to 250 µM | IC50 (KLK8 (human)): 10 to 250 µM | IC50 (Plasmine (human plasma)): 10 to 250 µM | IC50 (uPA (recombinant)): 10 to 250 µM | IC50 (tPA (recombinant)): > 250 µM | IC50 (Thrombine (human plasma)): > 250 µM | IC50 (FXa): > 250 µM | kapp KLK4 (KLK4): 34000 M⁻¹ s⁻¹ | Irreversible (KLK4) (KLK4): Yes/

N=C(N)Nc1ccc(C(NC(=O)OCCOc2ccccc2)P(=O)(Oc2ccccc2)Oc2ccccc2)cc1.O=C(O)C(F)(F)F (centres unmarked) [Compound 30, 2-phenoxyethyl((diphenoxyphosphoryl)(4-guanidinophenyl)methyl)carbamate 2,2,2-trifluoroacetate]
IC50 (Matriptase): 2.5 to 10 µM | IC50 (KLK1 (human)): 2.5 to 10 µM | IC50 (KLK8 (human)): 10 to 250 µM | IC50 (Plasmine (human plasma)): 10 to 250 µM | IC50 (uPA (recombinant)): 2.5 to 10 µM | IC50 (tPA (recombinant)): > 250 µM | IC50 (Thrombine (human plasma)): > 250 µM | IC50 (FXa): 10 to 250 µM | kapp KLK4 (KLK4): 15000 M⁻¹ s⁻¹ | Irreversible (KLK4) (KLK4): Yes/
